Results: patent publication US7981903B2, “2-[2-{phenylamino}-1H-pyrrolo[2,3-D]pyrimidin-4-yl)amino] benzamide derivatives as IGF-1R inhibitors for the treatment of cancer” (GlaxoSmithKline LLC, priority 2007, dated 2011)

Columns and labels:
human IGF1R (hIGF1R) = target: T1, human IGF1R (hIGF1R) (Homo sapiens, UniProt P08069); test: TR-FRET kinase assay of purified hIGF1R; format: biochemical; conditions: activated hIGF1R 0.5 nM, 10 μM ATP, values given as pIC50 category, read-out: IGF-1R pIC50 (converted)
T1 construct: containing amino acid residues 957-1367 of human IGF1R; made in house; host or cells: Sf9 cells (baculovirus)

Colo205 = test: Inhibition of cell proliferation (CellTiter-Glo or InCell analyzer), Colo205; format: cell-based; conditions: Homo sapiens, COLO 205, 72 h / 3 days, values given as IC50 category
Procedure, shortened: In one

NCI-H929 = test: Inhibition of cell proliferation (CellTiter-Glo or InCell analyzer), NCI-H929; format: cell-based; conditions: Homo sapiens, 72 h / 3 days, values given as IC50 category
Procedure, shortened: In one

[1] = target: T2, NIH-3T3 cells overexpressing human IR (Homo sapiens, UniProt P06213); test: IR cellular autophosphorylation (DELFIA); format: cell-based; conditions: 2 h compound, insulin 3 ug/ml for 15 minutes, IC50 category
T2 construct: expressed in transfected cells; host or cells: NIH-3T3 (mouse fibroblasts)
Procedure, shortened: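 Receptor autophosphorylation measured by DELFIA, capturing IGF-1R or IRβ and detecting with europium anti-pTyr, reported as percent of IGF-1- or insulin-stimulated signal. Compounds (30 uM to 1.5 nM) added 2 h before ligand, then 15 min stimulation (IGF-1 30 ng/ml or insulin 3 ug/ml).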

T1 sequence (P08069 957-1367): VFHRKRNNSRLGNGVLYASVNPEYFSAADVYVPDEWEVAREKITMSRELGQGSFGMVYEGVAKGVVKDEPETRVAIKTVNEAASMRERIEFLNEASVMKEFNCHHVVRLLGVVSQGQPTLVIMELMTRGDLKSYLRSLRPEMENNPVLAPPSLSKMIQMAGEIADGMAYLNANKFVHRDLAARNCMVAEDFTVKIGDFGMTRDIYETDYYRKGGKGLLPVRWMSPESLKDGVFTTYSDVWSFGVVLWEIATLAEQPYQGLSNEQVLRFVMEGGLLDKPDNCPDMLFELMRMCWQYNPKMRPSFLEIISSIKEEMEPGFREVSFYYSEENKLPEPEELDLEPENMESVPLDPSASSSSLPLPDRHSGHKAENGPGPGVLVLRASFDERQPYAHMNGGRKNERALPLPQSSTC
T2 sequence (P06213 28-1382): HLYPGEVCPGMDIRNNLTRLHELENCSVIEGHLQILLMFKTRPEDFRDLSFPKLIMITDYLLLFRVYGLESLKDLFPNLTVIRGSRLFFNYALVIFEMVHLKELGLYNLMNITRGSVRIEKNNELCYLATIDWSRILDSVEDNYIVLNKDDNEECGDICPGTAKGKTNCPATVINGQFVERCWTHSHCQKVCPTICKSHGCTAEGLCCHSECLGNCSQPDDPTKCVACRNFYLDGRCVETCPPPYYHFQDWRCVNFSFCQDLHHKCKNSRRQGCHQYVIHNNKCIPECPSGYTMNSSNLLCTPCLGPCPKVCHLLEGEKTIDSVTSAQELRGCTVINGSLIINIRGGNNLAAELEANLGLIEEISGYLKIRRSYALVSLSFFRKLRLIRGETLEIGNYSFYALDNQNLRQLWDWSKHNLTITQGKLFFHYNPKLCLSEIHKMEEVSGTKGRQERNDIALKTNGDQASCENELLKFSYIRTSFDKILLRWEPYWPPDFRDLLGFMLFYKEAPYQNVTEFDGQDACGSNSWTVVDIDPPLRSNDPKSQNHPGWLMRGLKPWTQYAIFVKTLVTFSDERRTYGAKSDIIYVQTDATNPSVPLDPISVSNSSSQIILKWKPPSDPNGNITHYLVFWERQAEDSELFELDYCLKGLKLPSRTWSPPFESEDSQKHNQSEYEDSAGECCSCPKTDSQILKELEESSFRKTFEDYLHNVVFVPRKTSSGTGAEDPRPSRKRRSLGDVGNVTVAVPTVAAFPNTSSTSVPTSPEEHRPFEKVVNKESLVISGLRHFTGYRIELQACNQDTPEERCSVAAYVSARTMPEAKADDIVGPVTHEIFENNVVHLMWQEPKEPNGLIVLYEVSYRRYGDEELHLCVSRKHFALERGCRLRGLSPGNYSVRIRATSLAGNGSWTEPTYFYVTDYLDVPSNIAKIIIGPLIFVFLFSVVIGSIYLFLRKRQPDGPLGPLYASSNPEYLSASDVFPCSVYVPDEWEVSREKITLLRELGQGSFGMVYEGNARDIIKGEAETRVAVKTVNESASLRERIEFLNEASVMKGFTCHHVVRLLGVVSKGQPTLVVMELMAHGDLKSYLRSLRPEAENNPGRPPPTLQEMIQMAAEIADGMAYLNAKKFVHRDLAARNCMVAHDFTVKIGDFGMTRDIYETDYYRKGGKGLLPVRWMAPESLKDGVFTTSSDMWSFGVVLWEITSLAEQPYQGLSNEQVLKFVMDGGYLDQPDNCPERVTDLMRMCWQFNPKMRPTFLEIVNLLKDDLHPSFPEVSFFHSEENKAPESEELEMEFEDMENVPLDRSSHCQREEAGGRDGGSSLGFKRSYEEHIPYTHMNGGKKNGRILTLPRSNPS

Structure (SMILES)	IC50 (human IGF1R (hIGF1R)) [nM]	IC50 (Colo205) [nM]	IC50 (NCI-H929) [nM]	IC50 [1] [nM]
COc1cc(N2CCN(C(C)C)CC2)c(F)cc1Nc1nc(Nc2cccc(F)c2C(N)=O)c2cc[nH]c2n1 [Example 48, 2-fluoro-6-[(2-{[5-fluoro-4-[4-(1-methylethyl)-1-piperazinyl]-2-(methyloxy)phenyl]amino}-1H-pyrrolo[2,3-d]pyrimidin-4-yl)amino]benzamide]	1.26 to 3.98	250 to 1000	< 250	< 100
COc1c(Nc2nc(Nc3cccc(F)c3C(N)=O)c3cc[nH]c3n2)ccc(N2CCN(C(C)C)CC2)c1F [Example 51, 2-fluoro-6-[(2-{[3-fluoro-4-[4-(1-methylethyl)-1-piperazinyl]-2-(methyloxy)phenyl]amino}-1H-pyrrolo[2,3-d]pyrimidin-4-yl)amino]benzamide]	1.26 to 3.98	250 to 1000	250 to 1000	> 500
COc1cc(N2CCN(CCS(C)(=O)=O)CC2)c(C)cc1Nc1nc(Nc2cccc(F)c2C(N)=O)c2cc[nH]c2n1 [Example 52, 2-fluoro-6-({2-[(5-methyl-2-(methyloxy)-4-{4-[2-(methylsulfonyl)ethyl]-1-piperazinyl}phenyl)amino]-1H-pyrrolo[2,3-d]pyrimidin-4-yl}amino)benzamide]	1.26 to 3.98	> 1000	250 to 1000	> 500
CCCN1CCC=C(c2ccc(Nc3nc(Nc4cc(F)ccc4C(N)=O)c4cc[nH]c4n3)c(OC)c2)C1 [Example 70, 4-fluoro-2-[(2-{[2-(methyloxy)-4-(1-propyl-1,2,5,6-tetrahydro-3-pyridinyl)phenyl]amino}-1H-pyrrolo[2,3-d]pyrimidin-4-yl)amino]benzamide]	0.251 to 1	< 250	< 250	< 100
CCCN1CCCC(c2ccc(Nc3nc(Nc4cc(F)ccc4C(N)=O)c4cc[nH]c4n3)c(OC)c2)C1 (centres unmarked) [Example 71, 4-fluoro-2-[(2-{[2-(methyloxy)-4-(1-propyl-3-piperidinyl)phenyl]amino}-1H-pyrrolo[2,3-d]pyrimidin-4-yl)amino]benzamide]	0.251 to 1	< 250	< 250	100 to 500
CCCN1CCC(c2ccc(Nc3nc(Nc4cc(F)ccc4C(N)=O)c4cc[nH]c4n3)c(OC)c2)CC1 [Example 73, 4-fluoro-2-[(2-{[2-(methyloxy)-4-(1-propyl-4-piperidinyl)phenyl]amino}-1H-pyrrolo[2,3-d]pyrimidin-4-yl)amino]benzamide]	0.251 to 1	< 250	< 250	< 100
COc1cc(N2CCN(CC3CC3)CC2)ccc1Nc1nc(Nc2cc(F)ccc2C(N)=O)c2cc[nH]c2n1 [Example 81, 2-[(2-{[4-[4-(cyclopropylmethyl)-1-piperazinyl]-2-(methyloxy)phenyl]amino}-1H-pyrrolo[2,3-d]pyrimidin-4-yl)amino]-4-fluorobenzamide]	1.26 to 3.98	< 250	< 250	100 to 500
COc1cc(N2CCOCC2)ccc1Nc1nc(Nc2cc(F)ccc2C(N)=O)c2cc[nH]c2n1 [Example 83, 4-fluoro-2-[(2-{[2-(methyloxy)-4-(4-morpholinyl)phenyl]amino}-1H-pyrrolo[2,3-d]pyrimidin-4-yl)amino]benzamide]	1.26 to 3.98	> 1000	250 to 1000	< 100
COc1cc(N2CCN(C(C)C)CC2)ccc1Nc1nc(Nc2cc(Cl)cc(F)c2C(N)=O)c2cc[nH]c2n1 [Example 93, 4-chloro-2-fluoro-6-[(2-{[4-[4-(1-methylethyl)-1-piperazinyl]-2-(methyloxy)phenyl]amino}-1H-pyrrolo[2,3-d]pyrimidin-4-yl)amino]benzamide]	1.26 to 3.98	250 to 1000	< 250	100 to 500
COc1cc(N2CCN(C(C)C)CC2)ccc1Nc1nc(Nc2ccc(F)c(F)c2C(N)=O)c2cc[nH]c2n1 [Example 94, 2,3-difluoro-6-[(2-{[4-[4-(1-methylethyl)-1-piperazinyl]-2-(methyloxy)phenyl]amino}-1H-pyrrolo[2,3-d]pyrimidin-4-yl)amino]benzamide]	1.26 to 3.98	< 250	< 250	100 to 500
COc1cc(C2CCN(C(C)C)CC2)ccc1Nc1nc(Nc2cc(F)c(F)cc2C(N)=O)c2cc[nH]c2n1 [Example 97, 4,5-difluoro-2-[(2-{[4-[1-(1-methylethyl)-4-piperidinyl]-2-(methyloxy)phenyl]amino}-1H-pyrrolo[2,3-d]pyrimidin-4-yl)amino]benzamide]	0.251 to 1	< 250	< 250	< 100

Second part, the compound after the results:

IC50 (human IGF1R (hIGF1R)) [nM]	IC50 (Colo205) [nM]	IC50 (NCI-H929) [nM]	IC50 [1] [nM]	Structure (SMILES)
0.251 to 1	< 250	< 250	< 100	CCCN1CCC(c2ccc(Nc3nc(Nc4cc(F)c(F)cc4C(N)=O)c4cc[nH]c4n3)c(OC)c2)CC1 [Example 98, 4,5-difluoro-2-[(2-{[2-(methyloxy)-4-(1-propyl-4-piperidinyl)phenyl]amino}-1H-pyrrolo[2,3-d]pyrimidin-4-yl)amino]benzamide]
1.26 to 3.98	< 250	< 250	100 to 500	COc1cc(N2CCC(N3CCN(S(C)(=O)=O)CC3)CC2)ccc1Nc1nc(Nc2cccc(F)c2C(N)=O)c2cc[nH]c2n1 [Example 113, 2-fluoro-6-({2-[(2-(methyloxy)-4-{4-[4-(methylsulfonyl)-1-piperazinyl]-1-piperidinyl}phenyl)amino]-1H-pyrrolo[2,3-d]pyrimidin-4-yl}amino)benzamide]
1.26 to 3.98	< 250	< 250	< 100	COc1cc(N2CCC(N3CCN(CCF)CC3)CC2)ccc1Nc1nc(Nc2cccc(F)c2C(N)=O)c2cc[nH]c2n1 [Example 114, 2-fluoro-6-[(2-{[4-{4-[4-(2-fluoroethyl)-1-piperazinyl]-1-piperidinyl}-2-(methyloxy)phenyl]amino}-1H-pyrrolo[2,3-d]pyrimidin-4-yl)amino]benzamide]
1.26 to 3.98	< 250	< 250	100 to 500	COc1cc(N2CCC(N3CCN(CCS(C)(=O)=O)CC3)CC2)ccc1Nc1nc(Nc2cccc(F)c2C(N)=O)c2cc[nH]c2n1 [Example 115, 2-fluoro-6-[(2-{[2-(methyloxy)-4-(4-{4-[2-(methylsulfonyl)ethyl]-1-piperazinyl}-1-piperidinyl)phenyl]amino}-1H-pyrrolo[2,3-d]pyrimidin-4-yl)amino]benzamide]
1.26 to 3.98	250 to 1000	< 250	100 to 500	COc1cc2c(cc1Nc1nc(Nc3cccc(F)c3C(N)=O)c3cc[nH]c3n1)CN(C(=O)CN(C)C)CC2 [Example 123, 2-[(2-{[2-(N,N-dimethylglycyl)-6-(methyloxy)-1,2,3,4-tetrahydro-7-isoquinolinyl]amino}-1H-pyrrolo[2,3-d]pyrimidin-4-yl)amino]-6-fluorobenzamide]
1.26 to 3.98	250 to 1000	< 250	100 to 500	CCNC(=O)c1c(F)cccc1Nc1nc(Nc2cc3c(cc2OC)CCN3C(=O)CN(C)C)nc2[nH]ccc12 [Example 126, 2-[(2-{[1-(N,N-dimethylglycyl)-5-(methyloxy)-2,3-dihydro-1H-indol-6-yl]amino}-1H-pyrrolo[2,3-d]pyrimidin-4-yl)amino]-N-ethyl-6-fluorobenzamide]
